In brackets after ≈: the same amount, converted by molar mass. Like-named read-outs stand apart in the source and are kept apart here. Where a SMILES comes first, the peptide text is derived from it. Bridges are numbered along the chain shown (N, C = ends). [ ]: non-standard residue; d: D form. NMeR = CN[C@@H](CCCNC(=N)N)C(=O)O; dNMeR = CN[C@H](CCCNC(=N)N)C(=O)O
Experiments:
[1] = tested on: Escherichia coli; format: cell-based
[2] = tested on: Pseudomonas aeruginosa; format: cell-based
[3] = tested on: Acinetobacter baumannii; format: cell-based
[4] = tested on: Klebsiella pneumoniae; format: cell-based
[5] = tested on: Staphylococcus aureus; test: microbe, parasite or virus in culture; format: cell-based
[6] = tested on: human red blood cells; details: red cells of human

| Compound | MIC90 [1] | MIC (μM) ec [1] | MIC (μM) pa [2] | MIC (μM) ab [3] | MIC (μM) kp [4] | MIC (μM) sa [5] | MHC10 (μM), minimum hemolytic concentration [6] | MIC (μM) pa ([2]; Pseudomonas aeruginosa, non-resistant, microbroth dilution, n = 5) | MIC (μM) ab ([3]; Acinetobacter baumannii, non-resistant, microbroth dilution, n = 5) | MIC (μM) kp ([4]; Klebsiella pneumoniae, non-resistant, microbroth dilution, n = 5) | MIC ([5]; Staphylococcus aureus, read-out: MIC (μM) sa) |
| --- | --- | --- | --- | --- | --- | --- | --- | --- | --- | --- | --- |
| CC(C)[C@@H](NC(=O)[C@@H](CCCNC(=N)N)NC(=O)[C@@H](Cc1ccccc1)NC(=O)[C@H](NC(=O)[C@@H](Cc1c[nH]c2ccccc12)NC(=O)[C@@H](CCCNC(=N)N)NC(=O)[C@H](N)CCCNC(=N)N)[C@H](C)O)C(=O)N[C@@H](C(=O)N[C@H](Cc1ccc(O)cc1)C(=O)N[C@@H](C)C(=O)N(C)[C@H](CCCNC(=N)N)C(=O)N[C@H](Cc1ccccc1)C(=O)N[C@@H](C(=O)N[C@H](Cc1ccc(O)cc1)C(=O)N[C@H](CCCNC(=N)N)C(=O)N[C@H](CCCCN)C(=O)N[C@@H](C(=O)N[C@H](CCCNC(=N)N)C(N)=O)[C@H](C)O)[C@H](C)O)[C@H](C)O [3f] (H-[dR][dR][dW][dT][dF][dR][dV][dT][dY]A[dNMeR][dF][dT][dY][dR][dK][dT][dR]-NH2) | 0.4 µM (≈ 0.991 µg/mL) | 0.4 µM (≈ 0.991 µg/mL) | 1.6 µM (≈ 3.96 µg/mL) | 1.6 µM (≈ 3.96 µg/mL) | 3.1 µM (≈ 7.68 µg/mL) | 1.2 µM (≈ 2.97 µg/mL) | 100 µM |  |  |  |  |
| CC(C)[C@H](NC(=O)[C@H](CCCNC(=N)N)NC(=O)[C@H](Cc1ccccc1)NC(=O)[C@@H](NC(=O)[C@H](Cc1c[nH]c2ccccc12)NC(=O)[C@H](CCCNC(=N)N)NC(=O)[C@@H](N)CCCNC(=N)N)[C@@H](C)O)C(=O)N[C@H](C(=O)N[C@@H](Cc1ccc(O)cc1)C(=O)N[C@H](C)C(=O)N(C)[C@@H](CCCNC(=N)N)C(=O)N[C@@H](Cc1ccccc1)C(=O)N[C@H](C(=O)N[C@@H](Cc1ccc(O)cc1)C(=O)N[C@@H](CCCNC(=N)N)C(=O)N[C@@H](CCCCN)C(=O)N[C@H](C(=O)N[C@@H](CCCNC(=N)N)C(N)=O)[C@@H](C)O)[C@@H](C)O)[C@@H](C)O [3d] (H-RRWTFRVTY[dA][NMeR]FTYRKTR-NH2) | 0.4 µM (≈ 0.991 µg/mL) | 0.4 µM (≈ 0.991 µg/mL) | 0.4 µM (≈ 0.991 µg/mL) | 0.8 µM (≈ 1.98 µg/mL) | 2.4 µM (≈ 5.95 µg/mL) | 3.1 µM (≈ 7.68 µg/mL) | 50 µM |  |  |  |  |
| CC(C)[C@H](NC(=O)CNC(=O)[C@H](CCCNC(=N)N)NC(=O)[C@@H](NC(=O)[C@H](CCCNC(=N)N)NC(=O)[C@H](C)NC(=O)[C@H](Cc1ccc(O)cc1)NC(=O)[C@@H](NC(=O)[C@@H](NC(=O)[C@H](Cc1c[nH]c2ccccc12)NC(=O)[C@@H](N)CCCNC(=N)N)[C@@H](C)O)C(C)C)C(C)C)C(=O)N[C@@H](CCCNC(=N)N)C(=O)N[C@@H](Cc1ccc(O)cc1)C(=O)N[C@@H](CCCNC(=N)N)C(=O)N[C@@H](CCCNC(=N)N)C(=O)N[C@H](C(=O)N[C@@H](Cc1c[nH]c2ccccc12)C(=O)O)[C@@H](C)O [1c] (H-RWTVYARVRGVRYRRTW-OH) | 2.4 µM (≈ 5.48 µg/mL) | 2.4 µM (≈ 5.48 µg/mL) | 12.5 µM (≈ 28.5 µg/mL) | 3.12 µM (≈ 7.12 µg/mL) | 1.6 µM (≈ 3.65 µg/mL) | 2.4 µM (≈ 5.48 µg/mL) |  |  |  |  |  |
| CC(C)[C@H](NC(=O)[C@H](CCCNC(=N)N)NC(=O)[C@H](C)NC(=O)[C@H](Cc1ccc(O)cc1)NC(=O)[C@@H](NC(=O)[C@@H](NC(=O)[C@H](Cc1c[nH]c2ccccc12)NC(=O)[C@@H](N)CCCNC(=N)N)[C@@H](C)O)C(C)C)C(=O)N[C@@H](C(=O)N(C)[C@@H](CCCNC(=N)N)C(=O)N[C@H](C(=O)N[C@@H](CCCNC(=N)N)C(=O)N[C@@H](Cc1ccc(O)cc1)C(=O)N[C@@H](CCCNC(=N)N)C(=O)N[C@@H](CCCNC(=N)N)C(=O)N[C@H](C(=O)N[C@@H](Cc1c[nH]c2ccccc12)C(=O)O)[C@@H](C)O)C(C)C)C(C)C [1e] (H-RWTVYARV[dV][NMeR]VRYRRTW-OH) | 0.6 µM (≈ 1.4 µg/mL) | 0.6 µM (≈ 1.4 µg/mL) | 0.8 µM (≈ 1.87 µg/mL) | 0.4 µM (≈ 0.935 µg/mL) | 1.6 µM (≈ 3.74 µg/mL) | 2.6 µM (≈ 6.08 µg/mL) |  |  |  |  |  |
| CC(C)C[C@H](NC(=O)[C@H](CCCNC(=N)N)NC(=O)CNC(=O)CNC(=O)[C@@H](N)CCCNC(=N)N)C(=O)N[C@H](C(=O)N[C@@H](Cc1ccc(O)cc1)C(=O)N[C@H](C(=O)N[C@@H](CCCNC(=N)N)C(=O)N[C@@H](C(=O)N(C)[C@@H](CCCNC(=N)N)C(=O)N[C@@H](Cc1ccccc1)C(=O)N[C@H](C(=O)N[C@H](C(=O)N[C@H](C(=O)N[C@H](C(=O)NCC(=O)N[C@@H](CCCNC(=N)N)C(N)=O)C(C)C)[C@@H](C)O)C(C)C)[C@@H](C)O)C(C)C)[C@@H](C)O)[C@@H](C)O [2e] (H-RGGRLTYTR[dV][NMeR]FTVTVGR-NH2) | 0.3 µM (≈ 0.633 µg/mL) |  |  |  |  |  | 50 µM |  |  |  |  |
| CC(C)[C@H](NC(=O)[C@H](CCCNC(=N)N)NC(=O)[C@H](Cc1ccccc1)NC(=O)[C@@H](NC(=O)[C@H](Cc1c[nH]c2ccccc12)NC(=O)[C@H](CCCNC(=N)N)NC(=O)[C@@H](N)CCCNC(=N)N)[C@@H](C)O)C(=O)N[C@H](C(=O)N[C@@H](Cc1ccc(O)cc1)C(=O)N[C@@H](C(=O)N(C)[C@@H](CCCNC(=N)N)C(=O)N[C@@H](Cc1ccccc1)C(=O)N[C@H](C(=O)N[C@@H](Cc1ccc(O)cc1)C(=O)N[C@@H](CCCNC(=N)N)C(=O)N[C@@H](CCCCN)C(=O)N[C@H](C(=O)N[C@@H](CCCNC(=N)N)C(N)=O)[C@@H](C)O)[C@@H](C)O)C(C)C)[C@@H](C)O [3e] (H-RRWTFRVTY[dV][NMeR]FTYRKTR-NH2) | 1.1 µM (≈ 2.76 µg/mL) |  |  |  |  |  | 50 µM |  |  |  |  |
| Polymyxin B [reference compound] |  |  |  |  |  |  |  | 0.8 µM | 0.8 µM | 3.0 µM |  |
| CC(C)C[C@H](NC(=O)[C@H](CCCNC(=N)N)NC(=O)CNC(=O)CNC(=O)[C@@H](N)CCCNC(=N)N)C(=O)N[C@H]1CSSC[C@@H](C(=O)N[C@H](C(=O)NCC(=O)N[C@@H](CCCNC(=N)N)C(N)=O)C(C)C)NC(=O)[C@H](C(C)C)NC(=O)[C@@H]2CSSC[C@H](NC(=O)[C@H](Cc3ccc(O)cc3)NC1=O)C(=O)N[C@@H](CCCNC(=N)N)C(=O)N[C@H](C)C(=O)N(C)[C@@H](CCCNC(=N)N)C(=O)N[C@@H](Cc1ccccc1)C(=O)N2 [2a] (H-RGGRLCYCR[dA][NMeR]FCVCVGR-NH2; disulfide 6-15, 8-13) | 0.5 µM (≈ 1.04 µg/mL) |  |  |  |  |  | 3.12 µM |  |  |  |  |
| CC(C)[C@@H]1NC(=O)[C@@H](NC(=O)[C@H](Cc2c[nH]c3ccccc23)NC(=O)[C@@H](N)CCCNC(=N)N)CSSC[C@@H](C(=O)N[C@@H](Cc2c[nH]c3ccccc23)C(=O)O)NC(=O)[C@H](CCCNC(=N)N)NC(=O)[C@H](CCCNC(=N)N)NC(=O)[C@H](Cc2ccc(O)cc2)NC(=O)[C@H](CCCNC(=N)N)NC(=O)[C@H](C(C)C)NC(=O)[C@H](CCCNC(=N)N)N(C)C(=O)[C@@H](C)NC(=O)[C@H](C(C)C)NC(=O)[C@H](CCCNC(=N)N)NC(=O)[C@H](C)NC(=O)[C@H](Cc2ccc(O)cc2)NC1=O [1a] (H-RWCVYARV[dA][NMeR]VRYRRCW-OH; disulfide 3-16) | 0.4 µM (≈ 0.925 µg/mL) | 0.4 µM (≈ 0.925 µg/mL) | 0.8 µM (≈ 1.85 µg/mL) | 0.4 µM (≈ 0.925 µg/mL) | 0.8 µM (≈ 1.85 µg/mL) | 0.8 µM (≈ 1.85 µg/mL) |  |  |  |  |  |
| CC(C)[C@@H]1NC(=O)[C@@H](NC(=O)[C@H](Cc2c[nH]c3ccccc23)NC(=O)[C@@H](N)CCCNC(=N)N)CSSC[C@@H](C(=O)N[C@@H](Cc2c[nH]c3ccccc23)C(=O)O)NC(=O)[C@H](CCCNC(=N)N)NC(=O)[C@H](CCCNC(=N)N)NC(=O)[C@H](Cc2ccc(O)cc2)NC(=O)[C@H](CCCNC(=N)N)NC(=O)[C@H](C(C)C)NC(=O)[C@H](CCCNC(=N)N)N(C)C(=O)[C@@H](C(C)C)NC(=O)[C@H](C(C)C)NC(=O)[C@H](CCCNC(=N)N)NC(=O)[C@H](C)NC(=O)[C@H](Cc2ccc(O)cc2)NC1=O [1b] (H-RWCVYARV[dV][NMeR]VRYRRCW-OH; disulfide 3-16) | 0.2 µM (≈ 0.468 µg/mL) | 0.2 µM (≈ 0.468 µg/mL) | 0.8 µM (≈ 1.87 µg/mL) | 0.8 µM (≈ 1.87 µg/mL) | 0.4 µM (≈ 0.936 µg/mL) | 0.4 µM (≈ 0.936 µg/mL) |  |  |  |  |  |
| CN[C@H](CC(C)C)C(=O)N[C@H]1C(=O)N[C@@H](CC(N)=O)C(=O)N[C@H]2C(=O)N[C@H]3C(=O)N[C@H](C(=O)N[C@H](C(=O)O)c4cc(O)cc(O)c4-c4cc3ccc4O)[C@H](O)c3ccc(c(Cl)c3)Oc3cc2cc(c3O[C@@H]2O[C@H](CO)[C@@H](O)[C@H](O)[C@H]2O[C@H]2C[C@](C)(N)[C@H](O)[C@H](C)O2)Oc2ccc(cc2Cl)[C@H]1O [Vancomycin, reference compound] |  |  |  |  |  |  |  |  |  |  | 0.6 µM (≈ 0.87 µg/mL) |
| CC(C)C[C@H](NC(=O)[C@H](CCCNC(=N)N)NC(=O)CNC(=O)CNC(=O)[C@@H](N)CCCNC(=N)N)C(=O)N[C@H]1CSSC[C@@H](C(=O)N[C@H](C(=O)NCC(=O)N[C@@H](CCCNC(=N)N)C(N)=O)C(C)C)NC(=O)[C@H](C(C)C)NC(=O)[C@@H]2CSSC[C@H](NC(=O)[C@H](Cc3ccc(O)cc3)NC1=O)C(=O)N[C@@H](CCCNC(=N)N)C(=O)N[C@H](C(C)C)C(=O)N(C)[C@@H](CCCNC(=N)N)C(=O)N[C@@H](Cc1ccccc1)C(=O)N2 [2b] (H-RGGRLCYCR[dV][NMeR]FCVCVGR-NH2; disulfide 6-15, 8-13) | 0.4 µM (≈ 0.845 µg/mL) |  |  |  |  |  | 3.12 µM |  |  |  |  |
| CC[C@H](C)[C@H](NC(=O)[C@H](CCCNC(=N)N)N(C)C(=O)[C@H](NC(=O)[C@H](Cc1ccc(O)cc1)NC(=O)[C@@H](NC(=O)[C@@H](NC(=O)[C@H](CCCNC(=N)N)NC(=O)[C@H](Cc1ccccc1)NC(=O)[C@@H](NC(=O)[C@H](Cc1c[nH]c2ccccc12)NC(=O)[C@@H](N)CCCCN)[C@@H](C)O)C(C)C)[C@@H](C)O)C(C)C)C(=O)N[C@H](C(=O)N[C@@H](Cc1ccc(O)cc1)C(=O)N[C@@H](CCCNC(=N)N)C(=O)N[C@@H](CCCNC(=N)N)C(=O)N[C@H](C(=O)N[C@@H](CCCNC(=N)N)C(N)=O)[C@@H](C)O)[C@@H](C)O [4e] (H-KWTFRVTY[dV][NMeR]ITYRRTR-NH2) | 0.2 µM (≈ 0.463 µg/mL) |  |  |  |  |  | 50 µM |  |  |  |  |
